Drawing on patent US20240425491A1, “HETEROARYL COMPOUNDS USEFUL IN THE TREATMENT OF COGNITIVE DISORDERS” (University College Cardiff Consultants Limited, priority 2021, published 2024), this text covers Ki for 14 compounds.

The structures appear in SMILES notation. pKi: −log10 of the molar value. Structures can show the parent of a compound that is named as a salt.

T1 sequence (P31644 32-462): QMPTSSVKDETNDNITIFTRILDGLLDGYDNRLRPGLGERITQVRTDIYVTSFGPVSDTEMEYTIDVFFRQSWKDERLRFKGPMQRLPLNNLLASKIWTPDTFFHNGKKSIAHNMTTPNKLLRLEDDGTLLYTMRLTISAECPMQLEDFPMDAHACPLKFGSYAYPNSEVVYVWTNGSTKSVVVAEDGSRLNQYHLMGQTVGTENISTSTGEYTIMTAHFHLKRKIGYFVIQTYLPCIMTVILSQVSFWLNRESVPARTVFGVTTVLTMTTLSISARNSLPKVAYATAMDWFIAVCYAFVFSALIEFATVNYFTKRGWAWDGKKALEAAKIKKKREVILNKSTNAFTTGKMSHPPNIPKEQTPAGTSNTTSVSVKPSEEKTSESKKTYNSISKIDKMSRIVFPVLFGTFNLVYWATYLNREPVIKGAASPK
T1 sequence (P28472 26-473 partner): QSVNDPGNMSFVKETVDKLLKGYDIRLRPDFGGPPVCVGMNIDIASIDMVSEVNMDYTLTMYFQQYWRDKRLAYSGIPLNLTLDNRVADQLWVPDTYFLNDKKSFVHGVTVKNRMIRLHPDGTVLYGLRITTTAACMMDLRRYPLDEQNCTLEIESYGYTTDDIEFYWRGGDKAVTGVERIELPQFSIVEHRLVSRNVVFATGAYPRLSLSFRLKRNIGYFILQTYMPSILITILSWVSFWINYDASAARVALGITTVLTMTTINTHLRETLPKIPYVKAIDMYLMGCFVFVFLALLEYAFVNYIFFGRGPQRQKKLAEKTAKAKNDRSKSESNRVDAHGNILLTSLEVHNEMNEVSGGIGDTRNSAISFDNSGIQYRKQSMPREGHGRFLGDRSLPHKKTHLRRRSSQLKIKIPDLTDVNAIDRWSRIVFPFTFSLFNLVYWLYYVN
T1 sequence (P18507 40-475): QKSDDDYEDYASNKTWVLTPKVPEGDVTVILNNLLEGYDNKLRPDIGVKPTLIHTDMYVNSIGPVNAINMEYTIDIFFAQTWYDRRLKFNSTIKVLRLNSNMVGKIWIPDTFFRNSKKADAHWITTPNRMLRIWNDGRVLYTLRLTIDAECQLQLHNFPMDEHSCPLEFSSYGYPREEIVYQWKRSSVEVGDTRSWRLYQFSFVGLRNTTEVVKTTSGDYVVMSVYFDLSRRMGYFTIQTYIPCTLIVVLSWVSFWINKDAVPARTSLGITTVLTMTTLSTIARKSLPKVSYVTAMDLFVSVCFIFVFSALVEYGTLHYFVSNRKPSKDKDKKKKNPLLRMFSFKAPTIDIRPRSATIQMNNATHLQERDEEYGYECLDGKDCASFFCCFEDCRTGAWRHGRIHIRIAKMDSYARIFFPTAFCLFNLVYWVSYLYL

The test concerns the target T1, human recombinant GABAAR containing α5β3γ2 subunits (benzodiazepine site) (Homo sapiens, UniProt P18507+P31644).
T1 construct: expressed in transfected cells; host or cells: mouse L(tk−) cells, dexamethasone-inducible vector pMSGneo
In words: In vitro radioligand binding assay (α5-GABAAR Ki). The note with it: inhibition of [3H]Ro15-1788 binding, membranes of L(tk−) cells expressing human α5β3γ2; read-out: α5-GABAAR Ki. From the text:
Mouse L(tk^−) cells stably expressing human α1β3γ2, α2β3γ2, α3β3γ2, α5β3γ2 GABAARs generated by transfection of the individual subunits in the dexamethasone-inducible expression vector pMSGneo in mouse L(tk^−) cells (Hadingham et al., 1993, Mol. Pharmacol. 43:970-975 and 1993, Mol. Pharmacol. 44:1211-1218) were used for binding and functional assays. For certain compounds, HEK293 cells stable expressing the human α1β3γ2L, α2β3γ2L, α3β3γ2L and α5β3γ2L GABAA receptors were used to evaluate their functional effects in a SyncroPatch electrophysiology assay.
L(tk^−) cells stably expressing human α1β3γ2, α2β3γ2, α3β3γ2, α5β3γ2 GABAARs were maintained in DMEM F12 medium supplemented with 10% Foetal Bovine Serum, 1% Penicillin/Streptomycin and 1 mg/mL Geneticin G418 in an incubator at 37° C. with a humidified atmosphere with 5% CO2.
The affinity (Ki) of compounds for the benzodiazepine site of human recombinant GABAARs was measured by their ability to inhibit the binding of the selective benzodiazepine antagonist [^3H] Ro15-1788 ([^3H] flumazenil).
L(tk^−) cells expressing human recombinant GABAAR containing α1β3γ2, α2β3γ2, α3β3γ2, α5β3γ2 subunits were harvested and membranes were prepared for each receptor combination in phosphate buffer (K2PO4 10 mM, pH 7.0) (Hadingham et al. (1992) Proc. Natl. Acad. Sci. USA; 89 (14): 6378-82). Protein concentration, receptor expression and the Kd of [^3H] Ro15-1788 were determined before Ki values of compounds were evaluated. For Kd evaluation, saturation binding curves were obtained by incubating membrane with various concentrations of [^3H] Ro15-1788 (82.5 Ci/mM), with nonspecific binding measured in the presence of 1 μM TP003.
For Ki evaluation, cell membranes were incubated with 4 nM [^3H] Ro15-1788 along with a range of concentrations of test compound. Nonspecific binding was determined using 1 μM TP003. All incubations were performed for 1 hour at 4° C. in assay buffer. The total assay volume was 0.5 mL, containing 100 μg membrane protein/well α1β3γ2, α2β3γ2, α3β3γ2 and 50 μg membrane protein/well for α53γ2. Incubations were terminated by filtration and washing with ice cold Tris-HCl buffer (50 mM, pH=7.4) over Whatman GF/B filters and the radioactivity of the filters was measured using liquid scintillation counting.
The % inhibition of [^3H] Ro15-1788 binding was plotted as a function of compound concentration and the IC50 calculated. From the IC50, the affinity (Ki) was calculated using the method of Cheng and Prusoff using the Kd values obtained for [^3H] Ro15-1788.
Turning to `COc1cc(-c2cnc(N)nc2)ccc1NC(=O)c1c(-c2ccccc2)noc1C` [Example 197, N-[4-(2-Aminopyrimidin-5-yl)-2-methoxy-phenyl]-5-methyl-3-phenyl-isoxazole-4-carboxamide hydrochloride], the pKi (as a rule, −log10 of the Ki, conventionally taken in molar units) is 9.40.

With `COc1cc(-c2c(C)n[nH]c2C)cnc1NC(=O)c1c(-c2ccccc2)noc1C` [Example 31, N-[5-(3,5-Dimethyl-1H-pyrazol-4-yl)-3-methoxy-2-pyridyl]-5-methyl-3-phenyl-isoxazole-4-carboxamide], the pKi is 7.16.

As to `COc1nc(-c2ccc3c(N)n[nH]c3c2)ccc1NC(=O)c1c(-c2ccccc2)noc1C` [Example 35, N-[6-(3-Amino-1H-indazol-6-yl)-2-methoxy-3-pyridyl]-5-methyl-3-phenyl-isoxazole-4-carboxamide], the pKi was 7.57.

As to `COc1nc(-c2cn(-c3nccs3)nc2C)ccc1NC(=O)c1c(-c2ccccc2)noc1C` [Example 115, N-(2-Methoxy-6-(3-methyl-1-(thiazol-2-yl)-1H-pyrazol-4-yl)pyridin-3-yl)-5-methyl-3-phenylisoxazole-4-carboxamide], the pKi is 7.00.

With `COc1nc(-c2ccncc2C)ccc1NC(=O)c1c(-c2ccccc2)noc1C` [Example 24, N-[2-Methoxy-6-(3-methyl-4-pyridyl)-3-pyridyl]-5-methyl-3-phenyl-isoxazole-4-carboxamide], the pKi was 6.79.

As for `COc1nc(-c2cccc([N+](=O)[O-])c2)ccc1NC(=O)c1c(-c2ccccc2)noc1C` [Example 8, N-[2-Methoxy-6-(3-nitrophenyl)-3-pyridyl]-5-methyl-3-phenyl-isoxazole-4-carboxamide], the pKi is 6.98.

Turning to `COc1nc(-c2ccc3cn[nH]c3c2)ccc1NC(=O)c1c(-c2ccccc2)noc1C` [Example 34, N-[6-(1H-Indazol-6-yl)-2-methoxy-3-pyridyl]-5-methyl-3-phenyl-isoxazole-4-carboxamide], the pKi is 6.94.

As for `COc1nc(-c2ccc(CN3CC4(COC4)C3)cc2)ccc1NC(=O)c1c(-c2ccccc2)noc1C` [Example 226, N-[2-methoxy-6-[4-(2-oxa-6-azaspiro[3.3]heptan-6-ylmethyl)phenyl]-3-pyridyl]-5-methyl-3-phenyl-isoxazole-4-carboxamide], the pKi was 8.48.

On to `COc1ncc(-c2ccc(NC(=O)c3c(-c4ccccc4)noc3C)c(OC)n2)s1` [Example 10, N-[2-Methoxy-6-(2-methoxythiazol-5-yl)-3-pyridyl]-5-methyl-3-phenyl-isoxazole-4-carboxamide], for which the pKi is 7.14.

As to `COc1nc(-c2nn[nH]n2)ccc1NC(=O)c1c(-c2ccccc2)noc1C` [Example 122, N-[2-Methoxy-6-(2H-tetrazol-5-yl)-3-pyridyl]-5-methyl-3-phenyl-isoxazole-4-carboxamide], the pKi is 6.90.

As to `COc1nc(-c2ccsn2)ccc1NC(=O)c1c(-c2ccccc2)noc1C` [Example 69, N-(6-Isothiazol-3-yl-2-methoxy-3-pyridyl)-5-methyl-3-phenyl-isoxazole-4-carboxamide], the pKi is 6.63.

Take `COc1nc(-c2c[nH]c(=O)c(F)c2)ccc1NC(=O)c1c(-c2ccccc2)noc1C` [Example 116, N-(5′-Fluoro-6-methoxy-6′-oxo-1′,6′-dihydro-[2,3′-bipyridin]-5-yl)-5-methyl-3-phenylisoxazole-4-carboxamide]: the pKi is 8.54.

As to `COc1nc(-c2c[nH]c3ncccc23)ccc1NC(=O)c1c(-c2ccccc2)noc1C` [Example 105, N-(2-Methoxy-6-(1H-pyrrolo[2,3-b]pyridin-3-yl)pyridin-3-yl)-5-methyl-3-phenylisoxazole-4-carboxamide], the pKi was 6.95.

With `COc1nc(-c2ncccn2)ccc1NC(=O)c1c(-c2ccccc2)noc1C` [Example 63, N-(2-Methoxy-6-pyrimidin-2-yl-3-pyridyl)-5-methyl-3-phenyl-isoxazole-4-carboxamide], the pKi is 7.49.
